Measured values from ChEMBL document CHEMBL1134735, “Synthesis and photodynamic action of diphenyl-2,3-dihydroxychlorin: a potential tumor photosensitizer” (2001).

Test: The dark toxicity against 543 human galactophore carcinoma cells
Format: functional

Structure (SMILES): OC1c2cc3ccc([nH]3)c(-c3ccccc3)c3ccc(cc4nc(c(-c5ccccc5)c(n2)C1O)C=C4)[nH]3 (stereo unspecified)
- IC90: > 32 µg/mL
